Laboratory results published in ChEMBL document CHEMBL4304761, “Alkylsulfonamide-containing quinazoline derivatives as potent and orally bioavailable PI3Ks inhibitors” (Bioorg Med Chem, 2019).
Activity calls are given as the source filed them. No cut-off for these calls is given here.

Legend:
[1] = target: T1, Phosphatidylinositol 4,5-bisphosphate 3-kinase catalytic subunit alpha isoform (Homo sapiens, UniProt P42336); assay: Inhibition of PI3K alpha (unknown origin) using lipid substrate measured after 40 mins in presence of ATP by Kinase-Glo plus reagent based luminescence assay
T1 sequence (P42336 whole entry, canonical isoform): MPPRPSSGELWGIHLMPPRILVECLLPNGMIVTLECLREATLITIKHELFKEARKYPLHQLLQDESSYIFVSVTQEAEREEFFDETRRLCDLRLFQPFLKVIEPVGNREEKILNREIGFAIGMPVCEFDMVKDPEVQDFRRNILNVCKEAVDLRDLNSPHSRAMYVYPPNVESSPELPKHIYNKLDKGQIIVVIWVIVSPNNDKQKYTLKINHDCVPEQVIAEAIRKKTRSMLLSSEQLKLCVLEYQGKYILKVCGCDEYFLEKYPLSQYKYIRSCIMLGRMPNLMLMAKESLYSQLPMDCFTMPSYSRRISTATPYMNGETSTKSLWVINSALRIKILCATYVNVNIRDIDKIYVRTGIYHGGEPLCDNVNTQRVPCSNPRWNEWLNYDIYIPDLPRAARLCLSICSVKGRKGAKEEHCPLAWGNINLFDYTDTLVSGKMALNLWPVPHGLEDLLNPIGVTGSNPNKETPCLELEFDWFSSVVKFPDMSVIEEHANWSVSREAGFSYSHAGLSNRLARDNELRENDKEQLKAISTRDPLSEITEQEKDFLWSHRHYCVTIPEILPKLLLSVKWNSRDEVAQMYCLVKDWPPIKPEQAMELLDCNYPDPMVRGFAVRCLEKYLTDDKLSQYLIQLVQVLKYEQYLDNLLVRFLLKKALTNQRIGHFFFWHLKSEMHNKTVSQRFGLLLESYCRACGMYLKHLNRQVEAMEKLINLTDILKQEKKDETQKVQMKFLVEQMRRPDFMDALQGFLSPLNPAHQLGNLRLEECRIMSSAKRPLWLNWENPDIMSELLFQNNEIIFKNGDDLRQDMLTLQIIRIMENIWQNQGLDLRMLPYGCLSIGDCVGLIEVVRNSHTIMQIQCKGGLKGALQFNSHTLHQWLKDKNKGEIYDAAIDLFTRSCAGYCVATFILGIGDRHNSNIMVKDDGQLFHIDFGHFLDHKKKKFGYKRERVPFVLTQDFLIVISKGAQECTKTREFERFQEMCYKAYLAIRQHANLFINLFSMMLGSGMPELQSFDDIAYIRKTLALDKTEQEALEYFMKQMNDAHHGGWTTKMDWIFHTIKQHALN

HCT-116 [2] = assay: Antiproliferative activity against human HCT116 cells harboring PIK3CA mutant H1047R measured after 72 hrs by MTT assay; type: functional, cell-based; conditions: HCT-116, 72 h
MCF7 = assay: Antiproliferative activity against human MCF7 cells harboring PIK3CA mutant E545K measured after 72 hrs by MTT assay; type: functional, cell-based; conditions: MCF7, 72 h
SU-DHL-6 = assay: Antiproliferative activity against human SUDHL6 cells measured after 72 hrs by CCK-8 assay; type: functional, cell-based; conditions: SU-DHL-6, 72 h
[3] = target: Phosphatidylinositol 4,5-bisphosphate 3-kinase catalytic subunit beta isoform (Homo sapiens, UniProt P42338); assay: Inhibition of PI3K beta (unknown origin) using lipid substrate measured after 40 mins in presence of ATP by Kinase-Glo plus reagent based luminescence assay
Chain of Phosphatidylinositol 4,5-bisphosphate 3-kinase catalytic subunit beta isoform (P42338 whole entry, canonical isoform): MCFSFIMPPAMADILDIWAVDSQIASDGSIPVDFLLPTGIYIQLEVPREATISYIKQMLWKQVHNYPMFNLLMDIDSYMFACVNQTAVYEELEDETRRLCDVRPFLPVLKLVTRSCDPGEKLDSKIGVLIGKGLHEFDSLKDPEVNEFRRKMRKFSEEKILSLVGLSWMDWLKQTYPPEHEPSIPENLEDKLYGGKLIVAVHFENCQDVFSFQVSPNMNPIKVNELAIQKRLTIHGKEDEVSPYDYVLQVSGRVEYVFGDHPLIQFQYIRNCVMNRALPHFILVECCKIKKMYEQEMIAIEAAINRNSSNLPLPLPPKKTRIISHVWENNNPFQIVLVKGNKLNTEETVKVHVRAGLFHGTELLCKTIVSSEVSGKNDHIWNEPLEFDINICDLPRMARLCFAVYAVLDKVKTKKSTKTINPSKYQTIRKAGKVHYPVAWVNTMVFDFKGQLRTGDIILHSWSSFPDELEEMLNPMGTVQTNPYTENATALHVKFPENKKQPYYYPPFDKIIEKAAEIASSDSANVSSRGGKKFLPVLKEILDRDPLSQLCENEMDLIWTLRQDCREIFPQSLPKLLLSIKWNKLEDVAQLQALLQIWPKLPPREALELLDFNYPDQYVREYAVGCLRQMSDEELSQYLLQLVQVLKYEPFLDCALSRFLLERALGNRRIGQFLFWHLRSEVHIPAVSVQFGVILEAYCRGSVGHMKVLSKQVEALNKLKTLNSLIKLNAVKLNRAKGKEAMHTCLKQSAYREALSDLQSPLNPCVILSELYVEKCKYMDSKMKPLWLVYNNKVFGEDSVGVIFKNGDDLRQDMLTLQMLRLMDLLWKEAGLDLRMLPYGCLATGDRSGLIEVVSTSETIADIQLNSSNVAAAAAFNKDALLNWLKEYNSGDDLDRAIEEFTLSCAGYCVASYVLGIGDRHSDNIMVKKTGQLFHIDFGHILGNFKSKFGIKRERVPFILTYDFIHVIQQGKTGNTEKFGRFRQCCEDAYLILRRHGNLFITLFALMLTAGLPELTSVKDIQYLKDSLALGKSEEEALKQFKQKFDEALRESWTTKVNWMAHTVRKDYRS

[4] = target: Phosphatidylinositol 4,5-bisphosphate 3-kinase catalytic subunit gamma isoform (Homo sapiens, UniProt P48736); assay: Inhibition of PI3K gamma (unknown origin) using lipid substrate measured after 40 mins in presence of ATP by Kinase-Glo plus reagent based luminescence assay
Chain of Phosphatidylinositol 4,5-bisphosphate 3-kinase catalytic subunit gamma isoform (P48736 whole entry, canonical isoform): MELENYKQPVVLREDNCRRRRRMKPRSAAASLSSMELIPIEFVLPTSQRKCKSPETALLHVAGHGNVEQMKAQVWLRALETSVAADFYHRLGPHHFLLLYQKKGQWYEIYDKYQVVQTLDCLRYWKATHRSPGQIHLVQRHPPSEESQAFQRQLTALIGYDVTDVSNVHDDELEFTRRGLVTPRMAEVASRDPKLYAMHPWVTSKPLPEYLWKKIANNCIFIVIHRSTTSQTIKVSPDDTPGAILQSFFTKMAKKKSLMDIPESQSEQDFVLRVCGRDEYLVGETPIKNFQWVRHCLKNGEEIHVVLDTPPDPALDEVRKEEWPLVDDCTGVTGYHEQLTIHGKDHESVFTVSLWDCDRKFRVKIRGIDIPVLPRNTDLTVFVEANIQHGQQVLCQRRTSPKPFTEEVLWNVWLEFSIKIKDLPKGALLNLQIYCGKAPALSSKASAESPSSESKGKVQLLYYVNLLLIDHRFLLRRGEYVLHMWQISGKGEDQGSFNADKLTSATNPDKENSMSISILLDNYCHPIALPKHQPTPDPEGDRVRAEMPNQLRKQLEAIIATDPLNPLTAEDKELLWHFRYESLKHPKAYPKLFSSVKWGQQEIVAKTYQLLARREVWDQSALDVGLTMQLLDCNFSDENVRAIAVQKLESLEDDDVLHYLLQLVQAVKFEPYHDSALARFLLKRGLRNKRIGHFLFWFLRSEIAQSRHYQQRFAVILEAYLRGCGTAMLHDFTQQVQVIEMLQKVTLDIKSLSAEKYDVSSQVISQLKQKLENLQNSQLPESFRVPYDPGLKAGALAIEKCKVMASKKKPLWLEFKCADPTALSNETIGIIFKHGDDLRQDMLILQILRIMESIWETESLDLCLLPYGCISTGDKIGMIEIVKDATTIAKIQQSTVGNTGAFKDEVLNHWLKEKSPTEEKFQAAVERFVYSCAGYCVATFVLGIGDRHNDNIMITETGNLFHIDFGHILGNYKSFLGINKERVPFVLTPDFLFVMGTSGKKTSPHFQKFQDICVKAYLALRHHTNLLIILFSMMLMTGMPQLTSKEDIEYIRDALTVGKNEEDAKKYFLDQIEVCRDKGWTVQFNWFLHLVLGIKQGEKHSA

[5] = target: T2, Phosphatidylinositol 4,5-bisphosphate 3-kinase catalytic subunit delta isoform (Homo sapiens, UniProt O00329); assay: Inhibition of PI3K delta (unknown origin) using lipid substrate measured after 40 mins in presence of ATP by Kinase-Glo plus reagent based luminescence assay
T2 sequence (O00329 whole entry): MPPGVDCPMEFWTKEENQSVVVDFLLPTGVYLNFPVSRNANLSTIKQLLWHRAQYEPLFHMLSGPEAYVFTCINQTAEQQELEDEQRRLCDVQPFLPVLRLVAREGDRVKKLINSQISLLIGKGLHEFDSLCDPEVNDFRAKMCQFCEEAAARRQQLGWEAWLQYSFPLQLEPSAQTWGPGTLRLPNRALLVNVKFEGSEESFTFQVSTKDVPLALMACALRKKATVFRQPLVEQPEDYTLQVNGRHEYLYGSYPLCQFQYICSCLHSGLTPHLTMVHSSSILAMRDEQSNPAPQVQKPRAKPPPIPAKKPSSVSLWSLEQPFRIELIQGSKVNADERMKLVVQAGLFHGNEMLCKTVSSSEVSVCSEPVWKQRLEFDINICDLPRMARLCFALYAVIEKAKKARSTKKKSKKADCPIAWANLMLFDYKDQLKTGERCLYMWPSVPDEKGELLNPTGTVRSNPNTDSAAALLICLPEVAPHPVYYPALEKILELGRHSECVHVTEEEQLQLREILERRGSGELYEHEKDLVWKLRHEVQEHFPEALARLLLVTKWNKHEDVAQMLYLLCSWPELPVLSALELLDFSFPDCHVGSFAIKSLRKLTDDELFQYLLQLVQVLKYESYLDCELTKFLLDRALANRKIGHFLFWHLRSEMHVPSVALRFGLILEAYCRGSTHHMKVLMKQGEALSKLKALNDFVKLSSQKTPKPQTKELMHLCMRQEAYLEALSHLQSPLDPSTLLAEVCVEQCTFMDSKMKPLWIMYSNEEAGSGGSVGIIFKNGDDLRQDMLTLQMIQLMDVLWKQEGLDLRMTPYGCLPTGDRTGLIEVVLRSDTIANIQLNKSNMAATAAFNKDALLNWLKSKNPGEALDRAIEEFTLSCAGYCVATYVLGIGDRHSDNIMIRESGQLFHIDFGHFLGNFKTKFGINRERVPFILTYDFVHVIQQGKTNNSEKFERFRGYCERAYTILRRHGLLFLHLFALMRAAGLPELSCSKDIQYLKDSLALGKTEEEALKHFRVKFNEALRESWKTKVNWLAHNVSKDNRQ

Homo sapiens [6] = species on record: Homo sapiens; assay: Selectivity ratio of IC50 for inhibition of PI3K beta (unknown origin) to IC50 for inhibition of PI3K alpha (unknown origin)
Homo sapiens [7] = species on record: Homo sapiens; assay: Selectivity ratio of IC50 for inhibition of PI3K delta (unknown origin) to IC50 for inhibition of PI3K alpha (unknown origin)
Homo sapiens [8] = species on record: Homo sapiens; assay: Selectivity ratio of IC50 for inhibition of PI3K gamma (unknown origin) to IC50 for inhibition of PI3K alpha (unknown origin)
[9] = Inhibition of PI3K/AKT/mTOR signaling in human HCT116 cells assessed as decrease in AKT phosphorylation at S473 at 1 uM measured after 5 hrs by Western blot analysis; type: cell-based
[10] = Inhibition of PI3K/AKT/mTOR signaling in human HCT116 cells assessed as decrease in AKT phosphorylation at S473 measured after 5 hrs by Western blot analysis; type: cell-based
HCT-116 [11] = assay: Antitumour activity against human HCT116 cells xenografted in BALB/c nude mouse assessed as tumour volume at 5 mg/kg, po via gavage administered once daily for 15 days and measure every three days by caliper method (reference value: 2769 +/- 536 mm3); type: functional
HCT-116 [12] = assay: Antitumour activity against human HCT116 cells xenografted in BALB/c nude mouse assessed as tumour volume at 25 mg/kg, po via gavage administered once daily for 15 days and measure every three days by caliper method (reference value: 2769 +/- 536 mm3); type: functional
HCT-116 [13] = assay: Antitumour activity against human HCT116 cells xenografted in BALB/c nude mouse assessed as tumour growth inhibition at 5 mg/kg, po via gavage administered once daily for 15 days and measure every three days by caliper method relative to control; type: functional; conditions: HCT-116, po, read-out: TGI
HCT-116 [14] = assay: Antitumour activity against human HCT116 cells xenografted in BALB/c nude mouse assessed as tumour growth inhibition at 25 mg/kg, po via gavage administered once daily for 15 days and measure every three days by caliper method relative to control; type: functional; conditions: HCT-116, po, read-out: TGI
HCT-116 [15] = assay: Antitumour activity against human HCT116 cells xenografted in BALB/c nude mouse assessed as tumour weight at 5 mg/kg, po via gavage administered once daily for 15 days and measure every three days by caliper method (reference value: 3.2 +/- 0.32 g); type: functional
HCT-116 [16] = assay: Antitumour activity against human HCT116 cells xenografted in BALB/c nude mouse assessed as tumour weight at 25 mg/kg, po via gavage administered once daily for 15 days and measure every three days by caliper method (reference value: 3.2 +/- 0.32 g); type: functional
[17] = Toxicity in BALB/c nude mouse xenografted with human HCT116 cells assessed as effect on body weight at 5 to 25 mg/kg, po via gavage administered once daily for 15 days; type: organism-based; conditions: in vivo, 360 h
[18] = target: T1, Phosphatidylinositol 4,5-bisphosphate 3-kinase catalytic subunit alpha isoform; assay: Potency index, ratio of 2-methoxy-5-(4-(2-morpholinoethylamino)quinazolin-6-yl)nicotinonitrile IC50 to test compound IC50 for inhibition of PI3K alpha (unknown origin)

Structure (SMILES): COc1ncc(-c2ccc3nccc(NCCN4CCOCC4)c3c2)cc1NS(C)(=O)=O
- IC50 [1]: 106 nM
- IC50 (HCT-116 [2]): 29000 nM
- IC50 (MCF7): 88000 nM
- IC50 (SU-DHL-6): ≥ 100000 nM

Structure (SMILES): COc1ncc(-c2ccc3ncnc(NC4CCNCC4)c3c2)cc1NS(C)(=O)=O
- IC50 [1]: 0.9 nM
- IC50 (HCT-116 [2]): 1300 nM
- IC50 (MCF7): 11000 nM
- IC50 (SU-DHL-6): ≥ 100000 nM

Structure (SMILES): COc1ncc(-c2ccc3ncnc(N[C@H]4CCN(C(=O)OC(C)(C)C)C4)c3c2)cc1NS(C)(=O)=O
- IC50 [1]: 5.3 nM
- IC50 (HCT-116 [2]): 250 nM
- IC50 (MCF7): 870 nM
- IC50 (SU-DHL-6): 170 nM

Structure (SMILES): COc1ncc(-c2ccc3ncnc(N[C@H]4CCN(C(C)=O)C4)c3c2)cc1NS(C)(=O)=O
- IC50 [1]: 0.5 nM
- IC50 [3]: 5 nM
- IC50 [4]: 4.3 nM
- IC50 [5]: 6.8 nM
- IC50 (HCT-116 [2]): 290 nM
- IC50 (MCF7): 14000 nM
- IC50 (SU-DHL-6): ≥ 100000 nM
- Ratio IC50 (Homo sapiens [6]): 10
- Ratio IC50 (Homo sapiens [7]): 10
- Ratio IC50 (Homo sapiens [8]): 10

Structure (SMILES): COc1ncc(-c2ccc3ncnc(N(C)CCN(C)C)c3c2)cc1NS(C)(=O)=O
- IC50 [1]: 7.7 nM
- IC50 (HCT-116 [2]): 5100 nM
- IC50 (MCF7): 4700 nM
- IC50 (SU-DHL-6): 1700 nM

Structure (SMILES): COc1ncc(-c2ccc3ncnc(N[C@H]4CCN(C(=O)C5CCCC5)C4)c3c2)cc1NS(C)(=O)=O
- IC50 [1]: 2.3 nM
- IC50 (HCT-116 [2]): 2100 nM
- IC50 (MCF7): 2500 nM
- IC50 (SU-DHL-6): 770 nM

Structure (SMILES): COc1ncc(-c2ccc3ncnc(NCCN4CCCCC4)c3c2)cc1NS(=O)(=O)C1CC1
- IC50 [1]: 34 nM
- IC50 (HCT-116 [2]): 5800 nM
- IC50 (MCF7): 3200 nM
- IC50 (SU-DHL-6): 410 nM

Structure (SMILES): Cn1c(=O)n(-c2ccc(C(C)(C)C#N)cc2)c2c3cc(-c4cnc5ccccc5c4)ccc3ncc21 [DACTOLISIB]
- IC50 (HCT-116 [2]): 370 nM
- IC50 (MCF7): 350 nM
- IC50 (SU-DHL-6): 70 nM
- inhibition [9]: Active

Structure (SMILES): COc1ncc(-c2ccc3ncnc(NC4CCN(C(C)=O)CC4)c3c2)cc1NS(C)(=O)=O
- IC50 [1]: 0.4 nM
- IC50 (HCT-116 [2]): 720 nM
- IC50 (MCF7): 16000 nM
- IC50 (SU-DHL-6): 4300 nM

Structure (SMILES): COc1ncc(-c2ccc3ncnc(NCCN(C)C)c3c2)cc1NS(C)(=O)=O
- IC50 [1]: 7 nM
- IC50 (HCT-116 [2]): 8700 nM
- IC50 (MCF7): 10000 nM
- IC50 (SU-DHL-6): 1700 nM

Structure (SMILES): COc1ncc(-c2ccc3ncnc(NCCN4CCOCC4)c3c2)cc1NS(=O)(=O)C1CC1
- IC50 [1]: 7.1 nM
- IC50 (HCT-116 [2]): 1900 nM
- IC50 (MCF7): 1500 nM
- IC50 (SU-DHL-6): 330 nM

Structure (SMILES): COc1ncc(-c2ccc3ncnc(N[C@H]4CCN(C(=O)C5CC5)C4)c3c2)cc1NS(C)(=O)=O
- IC50 [1]: 1 nM
- IC50 (HCT-116 [2]): 1000 nM
- IC50 (MCF7): 3700 nM
- IC50 (SU-DHL-6): 3000 nM

Structure (SMILES): COc1ncc(-c2ccc3ncnc(NC4CCN(C(=O)OC(C)(C)C)CC4)c3c2)cc1NS(C)(=O)=O
- IC50 [1]: 7 nM
- IC50 (HCT-116 [2]): 1800 nM
- IC50 (MCF7): 15000 nM
- IC50 (SU-DHL-6): 9700 nM

Structure (SMILES): COc1ncc(-c2ccc3ncnc(N[C@H]4CCN(C(=O)C5CCOCC5)C4)c3c2)cc1NS(C)(=O)=O
- IC50 [1]: 0.7 nM
- IC50 [3]: 5.6 nM
- IC50 [4]: 6.5 nM
- IC50 [5]: 7.4 nM
- IC50 (HCT-116 [2]): 1700 nM
- IC50 (MCF7): 4800 nM
- IC50 (SU-DHL-6): 1500 nM
- Ratio IC50 (Homo sapiens [6]): 10
- Ratio IC50 (Homo sapiens [7]): 10
- Ratio IC50 (Homo sapiens [8]): 10

Structure (SMILES): COc1ncc(-c2ccc3ncnc(NCCN4CCCCC4)c3c2)cc1NS(C)(=O)=O
- IC50 [1]: 12 nM
- IC50 (HCT-116 [2]): 1600 nM
- IC50 (MCF7): 3700 nM
- IC50 (SU-DHL-6): 320 nM

Structure (SMILES): COc1ncc(-c2ccc3ncnc(N[C@H]4CCN(C(=O)C(C)(C)C)C4)c3c2)cc1NS(C)(=O)=O
- IC50 [1]: 2.6 nM
- IC50 (HCT-116 [2]): 2000 nM
- IC50 (MCF7): 590 nM
- IC50 (SU-DHL-6): 7600 nM

Structure (SMILES): COc1ncc(-c2ccc3ncnc(NCCN4CCOCC4)c3c2)cc1NS(C)(=O)=O
- IC50 [1]: 4.5 nM
- IC50 [3]: 16 nM
- IC50 [4]: 6 nM
- IC50 [5]: 2.2 nM
- IC50 (HCT-116 [2]): 820 nM
- IC50 (MCF7): 990 nM
- IC50 (SU-DHL-6): 190 nM
- inhibition [10]: Dose-dependent effect
- Activity (HCT-116 [11]): 1299 mm3
- Activity (HCT-116 [12]): 992 mm3
- inhibition in vivo at 5 mg/kg (HCT-116 [13]): 53%
- inhibition in vivo at 25 mg/kg (HCT-116 [14]): 62%
- Activity (HCT-116 [15]): 2 g
- Activity (HCT-116 [16]): 1.6 g
- Activity [17]: Non-Toxic
- Ratio IC50 [18]: 100

Structure (SMILES): COc1ncc(-c2ccc3ncnc(NC4CCN(C(=O)C5CCOCC5)CC4)c3c2)cc1NS(C)(=O)=O
- IC50 [1]: 2.1 nM
- IC50 (HCT-116 [2]): 2900 nM
- IC50 (MCF7): 6000 nM
- IC50 (SU-DHL-6): ≥ 100000 nM

Structure (SMILES): COc1ncc(-c2ccc3ncnc(NC4CCN(C(=O)C5CCCC5)CC4)c3c2)cc1NS(C)(=O)=O
- IC50 [1]: 2.8 nM
- IC50 (HCT-116 [2]): 2800 nM
- IC50 (MCF7): 7900 nM
- IC50 (SU-DHL-6): 3300 nM
